Consider 11 molecules from ChEMBL document CHEMBL1201862, “PubChem BioAssay data set” (2004).

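All cell lines were grown in 96-well plates and treated with compound for 48 hours. GI50 = concentration required for 50% inhibition of growth.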 The source made the active and inactive calls. Cut-off read from the data, not from the text of the source: active = GI50 up to about 1.1 µM and inactive = higher. Where only a bound is given, the exact number is not on record here.

Test systems include HOP-92; IGROV-1; SW-620; NCI-H23; MOLT-4; OVCAR-4; PC-3; A549; HT-29; 786-0; SN12C; OVCAR-8; UACC-62; SF-539; HCT-15; T47D; NCI-H522; COLO 205; UO-31.
Common to all, as to assay: NCI tumour cell line growth inhibition, 48 h

Turning to `CC(=O)OC1CC2CC(=O)CC1N2C` (centres undefined), the GI50 in the assay on HOP-92, in the assay with IGROV-1, in the assay on SW-620, in the assay on NCI-H23, in the assay on MOLT-4 and with OVCAR-4 was > 100 µM (inactive) in each case. For the same molecule, the GI50 with PC-3, in the assay with A549, in the assay with HT-29, with 786-0, with SN12C and with OVCAR-8 was > 100 µM (inactive) throughout. For the same molecule, the GI50 in the assay on UACC-62 was > 100 µM (inactive); in the assay with SF-539, > 100 µM (inactive); in the assay with HCT-15, above 100 µM; in the assay with T47D it was > 100 µM (inactive); with NCI-H522, > 100 µM (inactive); in the assay with COLO 205, > 100 µM (inactive). The GI50 in the assay with UO-31 is > 100 µM (inactive).
Consider `C[C@H](CCC(=O)NCC(=O)O)[C@H]1CC[C@H]2[C@@H]3[C@H](O)C[C@@H]4C[C@H](O)CC[C@]4(C)[C@H]3CC[C@]12C`, for which the GI50 in the assay on HOP-92, in the assay with IGROV-1, in the assay with SW-620, in the assay with NCI-H23, with MOLT-4 and in the assay with OVCAR-4 was > 100 µM (inactive) in each case. The GI50 in the assay on PC-3, with A549, in the assay with HT-29, in the assay on 786-0, in the assay with SN12C and with OVCAR-8 was > 100 µM (inactive) in each case. Further, the GI50 is > 100 µM (inactive) with UACC-62; > 100 µM (inactive) in the assay with SF-539; above 100 µM with HCT-15; > 100 µM (inactive) with T47D; > 100 µM (inactive) in the assay with NCI-H522; > 100 µM (inactive) in the assay with COLO 205. Besides, the GI50 in the assay with UO-31 was > 100 µM (inactive).
Turning to `C[C@H]1[C@@H](c2ccccc2)O[B-](c2ccccc2)(c2ccccc2)[N+]1(C)C`, the GI50 in the assay on HOP-92 was 23.8 µM (inactive); in the assay with IGROV-1, > 100 µM (inactive); in the assay on SW-620 it was 56.5 µM (inactive); with NCI-H23 it was 70.1 µM (inactive); in the assay with MOLT-4, 43.6 µM (inactive); with OVCAR-4, > 100 µM (inactive). The GI50 in the assay on PC-3 was < 0.01 µM (active); in the assay with A549, 74.1 µM (inactive); with HT-29, 10 µM (inactive); with 786-0, 78.2 µM (inactive); in the assay on SN12C it was 99.3 µM (inactive); in the assay on OVCAR-8 it was 79.3 µM (inactive). The GI50 in the assay with UACC-62 is 52 µM (inactive); in the assay on SF-539, 33.3 µM (inactive); in the assay on HCT-15 it was 38.4 µM; with T47D it was 34.7 µM (inactive); in the assay on NCI-H522, 35.7 µM (inactive); with COLO 205, 16.1 µM (inactive). In addition, the GI50 in the assay with UO-31 was 19.3 µM (inactive).
For the molecule `C=CCC1=CC2(OC)C(=O)C(OC)(OC)C1C1C(OC)(OC)C(=O)C(OC)=CC12CC=C` (centres undefined), the GI50 in the assay with HOP-92, in the assay on IGROV-1, in the assay on SW-620, with NCI-H23, in the assay with MOLT-4 and in the assay with OVCAR-4 was > 100 µM (inactive) each time. Also, the GI50 in the assay with PC-3, in the assay on A549, in the assay with HT-29, in the assay on 786-0, in the assay with SN12C and in the assay on OVCAR-8 was > 100 µM (inactive) each time. Moreover, the GI50 with UACC-62 is > 100 µM (inactive); in the assay on SF-539, > 100 µM (inactive); in the assay with HCT-15 it was above 100 µM; in the assay on T47D it was > 100 µM (inactive); with NCI-H522, > 100 µM (inactive); in the assay with COLO 205, > 100 µM (inactive). Moreover, in the assay on UO-31, the GI50 is > 100 µM (inactive).
In the case of `C[n+]1cc2cc(O)c(O)cc2c2ccc3cc(O)c(O)cc3c21.c1ccncc1`, the GI50 with HOP-92 is 2.31 µM (inactive); in the assay with IGROV-1, 2.02 µM (inactive); in the assay with SW-620, 3.51 µM (inactive); with NCI-H23, 2.42 µM (inactive); in the assay with MOLT-4, 0.912 µM (active); in the assay on OVCAR-4, 2.88 µM (inactive). Further, the GI50 with PC-3 is 3.37 µM (inactive); in the assay on A549, 4.05 µM (inactive); in the assay on HT-29 it was 3.3 µM (inactive); in the assay with 786-0 it was 2.03 µM (inactive); with SN12C, 2.96 µM (inactive); in the assay on OVCAR-8, 3.1 µM (inactive). The GI50 in the assay with UACC-62 is 1.75 µM (inactive); with SF-539, 2.62 µM (inactive); in the assay with HCT-15, 2.47 µM; in the assay on T47D, 5.86 µM (inactive); with NCI-H522, 0.617 µM (active); in the assay on COLO 205, 10.3 µM (inactive). In addition, the GI50 in the assay on UO-31 was 0.982 µM (active).
Consider `CC/C(Cl)=N\OC(=O)Nc1ccc(OC)cc1`, for which the GI50 in the assay on HOP-92 is 2.43 µM (inactive); with IGROV-1 it was 6.71 µM (inactive); with SW-620, 2.7 µM (inactive); with NCI-H23, 15.4 µM (inactive); with MOLT-4 it was 2.07 µM (inactive); with OVCAR-4, 16.7 µM (inactive). The GI50 in the assay with PC-3 was 15.9 µM (inactive); in the assay on A549 it was 17.2 µM (inactive); in the assay with HT-29 it was 6.05 µM (inactive); with 786-0, 1.65 µM (inactive); in the assay with SN12C, 6.55 µM (inactive); with OVCAR-8, 15 µM (inactive). Moreover, the GI50 was 8.57 µM (inactive) in the assay on UACC-62; 4.89 µM (inactive) with SF-539; 1.6 µM in the assay on HCT-15; 5.89 µM (inactive) with T47D; 0.847 µM (active) in the assay with NCI-H522; 2.11 µM (inactive) with COLO 205. The GI50 in the assay with UO-31 was 7.94 µM (inactive).
Consider `O=C(NCc1cccs1)OC1CC2CCC1C2` (centres undefined), for which the GI50 with HOP-92, in the assay on IGROV-1, in the assay on SW-620, with NCI-H23, in the assay on MOLT-4 and with OVCAR-4 was > 100 µM (inactive) in each case. The GI50 in the assay with PC-3, in the assay with A549, in the assay on HT-29, in the assay with 786-0, with SN12C and in the assay with OVCAR-8 was > 100 µM (inactive) each time. Besides, the GI50 in the assay with UACC-62 is > 100 µM (inactive); in the assay on SF-539 it was > 100 µM (inactive); in the assay with HCT-15, above 100 µM; with T47D it was > 100 µM (inactive); in the assay with NCI-H522, > 100 µM (inactive); in the assay with COLO 205, > 100 µM (inactive). Moreover, in the assay with UO-31, the GI50 was > 100 µM (inactive).
Take `CCOC(=O)C1(C#N)OC(=O)c2cnccc21` (centres undefined): the GI50 with HOP-92, in the assay on IGROV-1, with SW-620, in the assay with NCI-H23, in the assay on MOLT-4 and in the assay with OVCAR-4 was > 100 µM (inactive) in each case. In addition, the GI50 with PC-3, in the assay with A549, in the assay on HT-29, with 786-0, in the assay on SN12C and in the assay on OVCAR-8 was > 100 µM (inactive) in each case. Also, the GI50 was > 100 µM (inactive) in the assay on UACC-62; > 100 µM (inactive) with SF-539; above 100 µM in the assay on HCT-15; > 100 µM (inactive) in the assay with T47D; > 100 µM (inactive) in the assay on NCI-H522; > 100 µM (inactive) with COLO 205. The GI50 with UO-31 is > 100 µM (inactive).
As to `CCOc1ccc(C2c3[nH]c4ccccc4c3CCN2C(=O)c2cccs2)cc1` (centres undefined), the GI50 was > 100 µM (inactive) in the assay with HOP-92; 10.2 µM (inactive) in the assay with IGROV-1; 21.1 µM (inactive) in the assay with SW-620; 56.4 µM (inactive) with NCI-H23; 2.65 µM (inactive) with MOLT-4; 4.22 µM (inactive) in the assay with OVCAR-4. The GI50 in the assay with PC-3 is 4.59 µM (inactive); in the assay on A549 it was 7.03 µM (inactive); in the assay on HT-29 it was 5.98 µM (inactive); with 786-0 it was 9.18 µM (inactive); with SN12C it was > 100 µM (inactive); in the assay with OVCAR-8, 36.4 µM (inactive). The GI50 in the assay on UACC-62 was 6.04 µM (inactive); with SF-539, 3.51 µM (inactive); in the assay with HCT-15, 1.74 µM; with T47D it was 5.9 µM (inactive); with NCI-H522 it was 9.79 µM (inactive); in the assay on COLO 205, 8.47 µM (inactive). Besides, in the assay on UO-31, the GI50 is 14.2 µM (inactive).
Turning to `CCN(CC)/C(Sc1ccccc1)=C(\C(Cl)=C(Cl)Cl)[N+](=O)[O-]`, the GI50 with HOP-92 was 14.2 µM (inactive); in the assay on IGROV-1, 16 µM (inactive); in the assay with SW-620, 17.9 µM (inactive); in the assay on NCI-H23 it was 13.7 µM (inactive); in the assay with MOLT-4 it was 6.93 µM (inactive); with OVCAR-4, 33.7 µM (inactive). Further, the GI50 in the assay with PC-3 was 17.2 µM (inactive); in the assay on A549, 21.7 µM (inactive); in the assay with HT-29 it was 21.5 µM (inactive); with 786-0 it was 18 µM (inactive); in the assay on SN12C it was 17.9 µM (inactive); in the assay on OVCAR-8 it was 17.2 µM (inactive). Besides, the GI50 with UACC-62 was 14.6 µM (inactive); in the assay with SF-539, 17.3 µM (inactive); in the assay with HCT-15 it was 14.9 µM; in the assay on T47D, 17.8 µM (inactive); in the assay on NCI-H522, 12.6 µM (inactive); in the assay with COLO 205 it was 16.4 µM (inactive). Further, in the assay with UO-31, the GI50 is 14.8 µM (inactive).
Regarding `CC(C)(C)c1ccc(-c2nnc(SCc3ccc(Cl)cc3)n2-c2cccc(C(F)(F)F)c2)cc1`, the GI50 with HOP-92 was 19.8 µM (inactive); in the assay on IGROV-1, 26.9 µM (inactive); in the assay with SW-620, 15.9 µM (inactive); with NCI-H23 it was 10.9 µM (inactive); in the assay on MOLT-4, 3.78 µM (inactive); in the assay with OVCAR-4, 7.8 µM (inactive). In addition, the GI50 in the assay on PC-3 is 6.98 µM (inactive); in the assay on A549, 7.64 µM (inactive); in the assay with HT-29, 5.47 µM (inactive); in the assay on 786-0, 13.9 µM (inactive); in the assay with SN12C it was 4.24 µM (inactive); in the assay with OVCAR-8, 15.6 µM (inactive). Also, the GI50 with UACC-62 was 22.5 µM (inactive); in the assay on SF-539, 54.8 µM (inactive); in the assay on HCT-15, 8.73 µM; in the assay with T47D, 5.08 µM (inactive); in the assay on NCI-H522, 4.39 µM (inactive); in the assay on COLO 205 it was 8.83 µM (inactive). The GI50 with UO-31 was 11.6 µM (inactive).
